Source: US11559497B2 (Guangzhou Dazhou Biomedicine Ltd., priority 2020, dated 2023)

Legend:
[1] = Phase 1 clinical study: plasma pharmacokinetics after ketamine transdermal patch; conditions: for AUC / AUC(0-inf) / Cmax / half-life / Tmax: human, plasma, other: transdermal patch; for AUC(0-inf): AUCinf
Experimental: Enrollment was planned to achieve participation of up to 14 adult subjects with MDD in the 3 stages of the protocol. Subjects were to be screened within 4 weeks of enrollment. Eligible subjects who provided written consent were to be enrolled into Stage 1 of the study. In Stage 1 of the study, subjects were to receive the low-dose transdermal patch. The amount of residual drug was to be measured and PK analysis conducted for each subject to inform the subsequent dosing. In Stage 2, after a 2 to 4 week washout period, a placebo patch was to be administered. A “deception” protocol was used in order to ensure the subjects remained blinded to the treatment. Placebo administration was followed by a 1 week washout period, after which subjects were to receive the high-dose transdermal patch in Stage 3. The overall study duration from screening until the end of Stage 3 was approximately 60 days, including both inpatient and outpatient portions of the study. The general study design is illustrated in FIG. 3.
The patch was predicted to deliver systemically approximately 20 mg.
For Stage 1, blood samples were collected pre-patch application, and at 2, 6, 12, 24, 28, 32, 48, 96, and 168 hours post-patch application.
Blood samples were collected in tubes containing sodium heparin and stored on ice or room temperature until centrifuged under refrigeration or room temperature for at least 10 minutes at 3,000 revolutions per minute. After centrifugation, plasma was removed, divided into 2 aliquots of approximately 0.6 mL each, frozen, and stored at or below −20° C. Blood was processed to plasma and frozen within 1 hour of collection. Processed frozen plasma samples were transferred on dry ice to the analytical laboratory and were stored at or below −20° C. until bioanalysis was performed.
A non-compartmental analysis (NCA) was used to calculate PK parameters using Phoenix® WinNonlin® 6.4 or later (Certara, USA).

patients = conditions: cited from earlier work
[2] = cited from earlier work
[3] = test system: subjects diagnosed with major depressive disorder (MDD); experiment: Phase 1 clinical study: safety; format: in vivo, human
Source text: Safety data included adverse events (AEs), concomitant medications, PE, vital signs (VS), ECGs, clinical laboratory results, other safety measures based on questionnaires (Clinician-Administered Dissociative States Scale [CADSS], Observer's Assessment of Alertness/Sedation Scale [OAA/S], Brief Psychiatric Rating Scale [BPRS]), and the emergence of suicidality based on the suicidal ideation and suicidal behavior ratings of the Columbia-Suicide Severity Rating Scale (C-SSRS). Safety summaries and analyses were performed on the Safety Population and were presented by treatment. Observed data was summarized using counts and percentages for discrete variables and means, SD, median, inter-quartile range (25th-75th percentile), minimum, and maximum for continuous measures.

[4] = Stage 1: Ketamine Low-Dose (N = 18)
[5] = Stage 3: Ketamine High-Dose (N = 12)

CNC1(c2ccccc2Cl)CCCCC1=O (racemic) [Ketamine, ketamine]
plasma concentration ([1]; 96 hours post dose): minimal values
plasma concentration ([1]; 168 hours post dose): below quantification limit
Extrap ([1]; Stage 1, Mean): 6%
Extrap ([1]; Stage 1, Median): 6%
Extrap ([1]; Stage 3, Mean): 4%
Extrap ([1]; Stage 3, Median): 3%
AUC ([1]; 20 mg, AUCall, Stage 1 (60 cm^2 patch, 24 h, low-dose), Mean): 0.284 µg·h/mL
AUC ([1]; 20 mg, AUCall, Stage 1 (60 cm^2 patch, 24 h, low-dose), Median): 0.28 µg·h/mL
AUC(0-inf) ([1]; 20 mg, Stage 1, Mean): 0.299 µg·h/mL
AUC(0-inf) ([1]; 20 mg, Stage 1, Median): 0.274 µg·h/mL
Cmax ([1]; 20 mg, Stage 1, Mean): ~0.0103 µg/mL
Cmax ([1]; 20 mg, Stage 1, Median): 0.00992 µg/mL
half-life ([1]; 20 mg, T1/2, Stage 1, Mean): 13.2 h
half-life ([1]; 20 mg, T1/2, Stage 1, Median): 13.7 h
Tmax ([1]; 20 mg, Stage 1, Mean): 27.1 h
Tmax ([1]; 20 mg, Stage 1, Median): 28 h
AUC ([1]; 20 mg, average AUC of ketamine per cm^2 patch over 24 hours, Stage 1): 0.00362 µg·h/mL
AUC ([1]; 40 mg, AUCall, Stage 3 (20 and 60 cm^2 patches, high-dose), Mean): 0.393 µg·h/mL
AUC ([1]; 40 mg, AUCall, Stage 3 (20 and 60 cm^2 patches, high-dose), Median): 0.339 µg·h/mL
AUC(0-inf) ([1]; 40 mg, Stage 3, Mean): 0.423 µg·h/mL
AUC(0-inf) ([1]; 40 mg, Stage 3, Median): 0.362 µg·h/mL
Cmax ([1]; 40 mg, Stage 3, Mean): ~0.0144 µg/mL
Cmax ([1]; 40 mg, Stage 3, Median): 0.00967 µg/mL
half-life ([1]; 40 mg, T1/2, Stage 3, Mean): 13.8 h
half-life ([1]; 40 mg, T1/2, Stage 3, Median): 14.9 h
Tmax ([1]; 40 mg, Stage 3, Mean): 27 h
Tmax ([1]; 40 mg, Stage 3, Median): 28 h
AUC ([1]; 40 mg, average AUC of ketamine per cm^2 patch over 24 hours, Stage 3): 0.00417 µg·h/mL
time after which side effects typically resolved (patients; 0.5 mg/kg 40 minutes IV infusion): about 2 hours
duration of antidepressant effect after single dose (patients; IV infusion or intranasal spray): about 3 days
reduction of opioid consumption (patients; low-dose IV, perioperative pain, meta-analysis): 40%
absolute oral bioavailability ([2]; humans): 10-20%
systemic (primarily hepatic) clearance ([2]; in vivo): about 19 ml/min·kg
overall safety and tolerability ([3]; 20 mg and 40 mg doses): generally safe and well tolerated
At least 1 TEAE, # of Events [3, 4]: 3
At least 1 TEAE, n (%) [3, 4]: 3 (16.7) n (%)
Cardiac disorders, # of Events [3, 4]: 0
Cardiac disorders, n (%) [3, 4]: 0 n (%)
Contusion, # of Events [3, 4]: 1
Contusion, n (%) [3, 4]: 1(5.6) n (%)
Depression, # of Events [3, 4]: 0
Depression, n (%) [3, 4]: 0 n (%)
Dermatitis, # of Events [3, 4]: 0
Dermatitis, n (%) [3, 4]: 0 n (%)
Diarrhoea, # of Events [3, 4]: 1
Diarrhoea, n (%) [3, 4]: 1(5.6) n (%)
Erythema, # of Events [3, 4]: 0
Erythema, n (%) [3, 4]: 0 n (%)
Gastrointestinal disorders, # of Events [3, 4]: 1
Gastrointestinal disorders, n (%) [3, 4]: 1 (5.6) n (%)
Headache, # of Events [3, 4]: 0
Headache, n (%) [3, 4]: 0 n (%)
Infections and infestations, # of Events [3, 4]: 0
Infections and infestations, n (%) [3, 4]: 0 n (%)
Injury, poisoning, and procedural complications, # of Events [3, 4]: 1
Injury, poisoning, and procedural complications, n (%) [3, 4]: 1 (5.6) n (%)
Nervous system disorders, # of Events [3, 4]: 1
Nervous system disorders, n (%) [3, 4]: 1 (5.6) n (%)
Psychiatric disorders, # of Events [3, 4]: 0
Psychiatric disorders, n (%) [3, 4]: 0 n (%)
Skin and subcutaneous tissue disorders, # of Events [3, 4]: 0
Skin and subcutaneous tissue disorders, n (%) [3, 4]: 0 n (%)
Somnolence, # of Events [3, 4]: 1
Somnolence, n (%) [3, 4]: 1 (5.6) n (%)
Swelling face, # of Events [3, 4]: 0
Swelling face, n (%) [3, 4]: 0 n (%)
Tachycardia, # of Events [3, 4]: 0
Tachycardia, n (%) [3, 4]: 0 n (%)
Urinary tract infection, # of Events [3, 4]: 0
Urinary tract infection, n (%) [3, 4]: 0 n (%)
At least 1 TEAE, # of Events [3, 5]: 5
At least 1 TEAE, n (%) [3, 5]: 4 (33.3) n (%)
Cardiac disorders, # of Events [3, 5]: 0
Cardiac disorders, n (%) [3, 5]: 0 n (%)
Contusion, # of Events [3, 5]: 1
Contusion, n (%) [3, 5]: 1 (8.3) n (%)
Depression, # of Events [3, 5]: 1
Depression, n (%) [3, 5]: 1 (8.3) n (%)
Dermatitis, # of Events [3, 5]: 0
Dermatitis, n (%) [3, 5]: 0 n (%)
Diarrhoea, # of Events [3, 5]: 0
Diarrhoea, n (%) [3, 5]: 0 n (%)
Erythema, # of Events [3, 5]: 1
Erythema, n (%) [3, 5]: 1 (8.3) n (%)
Gastrointestinal disorders, # of Events [3, 5]: 0
Gastrointestinal disorders, n (%) [3, 5]: 0 n (%)
Headache, # of Events [3, 5]: 1
Headache, n (%) [3, 5]: 1 (8.3) n (%)
Infections and infestations, # of Events [3, 5]: 0
Infections and infestations, n (%) [3, 5]: 0 n (%)
Injury, poisoning, and procedural complications, # of Events [3, 5]: 1
Injury, poisoning, and procedural complications, n (%) [3, 5]: 1 (8.3) n (%)
Nervous system disorders, # of Events [3, 5]: 1
Nervous system disorders, n (%) [3, 5]: 1 (8.3) n (%)
Psychiatric disorders, # of Events [3, 5]: 1
Psychiatric disorders, n (%) [3, 5]: 1 (8.3) n (%)
Skin and subcutaneous tissue disorders, # of Events [3, 5]: 2
Skin and subcutaneous tissue disorders, n (%) [3, 5]: 1 (8.3) n (%)
Somnolence, # of Events [3, 5]: 0
Somnolence, n (%) [3, 5]: 0 n (%)
Swelling face, # of Events [3, 5]: 1
Swelling face, n (%) [3, 5]: 1 (8.3) n (%)
Tachycardia, # of Events [3, 5]: 0
Tachycardia, n (%) [3, 5]: 0 n (%)
Urinary tract infection, # of Events [3, 5]: 0
Urinary tract infection, n (%) [3, 5]: 0 n (%)
OAA/S change from baseline composite score between treatments ([3]; any timepoint): No significant differences
TEAEs considered possibly related to the study drug ([3]; headache and diarrhoea): 2
PR interval or QTcB interval ([3]; human, in vivo): No trends in mean change from baseline
SBP, DBP, oxygen saturation, temperature ([3]; human, in vivo): No notable mean changes from baseline
adverse reactions at the patch application site ([3]; human, in vivo): no adverse reactions noted at the patch application site
deaths or SAEs ([3]; human, in vivo): no deaths or SAEs
laboratory parameters ([3]; human, in vivo): no clinically significant abnormal trends
severe TEAEs ([3]; human, in vivo): no severe TEAEs
respiratory rate and HR ([3]; ketamine high dose): a decrease in mean respiratory rate and an increase in HR compared to baseline
BPRS, BPRS-Positive subscale, CADSS total score post-patch application ([3]; low-dose or high-dose): no increase in the total score of the BPRS, the BPRS-Positive subscale, or the CADSS
TEAEs considered probably related to the study drug ([3]; somnolence): 1
